This note sets out measurements from patent US20140288040A1, “SUBSTITUTED BENZYLAMINE COMPOUNDS, THEIR USE IN MEDICINE, AND IN PARTICULAR THE TREATMENT OF HEPATITIS C VIRUS (HCV) INFECTION” (ASTEX THERAPEUTICS LIMITED, priority 2011, published 2014).

The structures appear in SMILES notation. Where a name gives a salt, the structure may show the parent alone.

T1 sequence (P26663 1658-1711): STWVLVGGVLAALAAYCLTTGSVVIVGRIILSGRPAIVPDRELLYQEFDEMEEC
T1 sequence (P26663 1027-1657): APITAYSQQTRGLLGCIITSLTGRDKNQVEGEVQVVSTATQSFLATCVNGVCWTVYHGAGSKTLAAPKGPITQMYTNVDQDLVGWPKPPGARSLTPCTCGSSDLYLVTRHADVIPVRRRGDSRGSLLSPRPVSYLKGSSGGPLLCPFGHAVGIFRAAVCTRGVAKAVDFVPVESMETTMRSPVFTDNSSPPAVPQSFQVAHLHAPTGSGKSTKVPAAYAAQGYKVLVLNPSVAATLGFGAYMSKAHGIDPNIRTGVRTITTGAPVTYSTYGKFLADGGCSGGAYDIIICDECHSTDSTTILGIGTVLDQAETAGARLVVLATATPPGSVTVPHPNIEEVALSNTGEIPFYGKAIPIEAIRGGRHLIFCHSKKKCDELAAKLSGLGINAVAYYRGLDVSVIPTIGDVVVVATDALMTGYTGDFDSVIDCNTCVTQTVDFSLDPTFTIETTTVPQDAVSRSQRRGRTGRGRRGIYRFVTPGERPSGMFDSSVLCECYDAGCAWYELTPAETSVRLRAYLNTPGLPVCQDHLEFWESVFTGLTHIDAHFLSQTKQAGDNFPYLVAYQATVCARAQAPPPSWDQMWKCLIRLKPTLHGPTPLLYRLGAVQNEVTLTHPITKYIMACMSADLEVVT

The first assay addresses T1, HCV NS3 protease (full length NS34a) (Hepatitis C virus genotype 1b, UniProt P26663).
T1 construct: The protease activity of the full length NS34a was measured using a FRET-based assay; made in house
Description: HCV NS3 protease assay (FRET, full length NS34a). Type of assay: biochemical. The following applies: IC50 values of 10-150 μM against the protease activity of the full length NS34a, or at least 40% inhibition of protease activity at a concentration of 100 μM. As for the experimental part:
The HCV NS3 protease functions have been extensively studied and are considered as potential targets for antiviral therapy: see for example the many references listed in the introductory section of this application. Therefore, the activity of the compounds of the invention as anti-HCV agents was assessed using a full length HCV NS3 protease.
The protease activity of the full length NS34a was measured using a FRET-based assay utilizing a peptide substrate derived from the NS4AB cleavage site (Anaspec) and labelled at one end with a quencher (QXL520) and at the other with a fluorophore (5-FAMsp). NS34a (produced in-house by literature methods) was incubated with test compounds and peptide substrate in 50 mM Tris pH8, 20 mM DTT, 1% CHAPS, 10% glycerol and 5% DMSO. The reaction was followed by monitoring the change in fluorescence on a Molecular Devices Gemini plate reader for 30 minutes at room temperature. Initial rates were calculated from the progress curves using SoftMax Pro (Molecular Devices). IC50 values were then calculated from replicate curves using Prism GraphPad software.
A word on the IC50: it is the concentration needed to halve the response being measured. Take `NC(c1cccnc1)c1ccc(F)c(Oc2ccccc2)c1F` (stereo not shown) [Example 59A, C-(2,4-Difluoro-3-phenoxy-phenyl)-C-pyridin-3-yl-methylamine. dihydrochloride]: the IC50 is 10 to 150 µM.
Molecule `CC[C@@H](N[C@H](C)CC(N)=O)c1ccc(Cl)c(Oc2ccc(C#N)c(F)c2)c1F` [Example 214] registered an IC50 of 10 to 150 µM.
`CC[C@@H](N)c1ccc(Cl)c(Oc2ccc(NC(C)=O)nc2)c1F` [Example 355] registered a half-maximal inhibitory concentration (IC50) of 10 to 150 µM.
The same measure, in the same setting: in the case of `CC[C@@H](N[C@H](C)CC(N)=O)c1ccc(Cl)c(Oc2ccc(C(N)=O)nc2)c1F` [Example 248, 5-{3-[(R)-1-((R)-2-Carbamoyl-1-methyl-ethylamino)-propyl]-6-chloro-2-fluoro-phenoxy}-pyridine-2-carboxylic acid amide.hydrochloride] it was 10 to 150 µM; in that of `CCC(NC(C)COC)c1ccc(F)c(Oc2ccccc2)c1F` (stereo not shown) [Example 51], 10 to 150 µM.
On to `CC[C@@H](N[C@H](C)CC(=O)NC[C@@H](C)O)c1ccc(Cl)c(Oc2ccccc2)c1F` [Example 268], for which the half-maximal inhibitory concentration (IC50) was in the range of 10 to 150 µM.
With `N[C@H](CC1CCOCC1)c1ccc(Cl)c(Oc2ccccc2)c1F` [Example 276A, (R)-1-(4-Chloro-2-fluoro-3-phenoxy-phenyl)-2-(tetrahydro-pyran-4-yl)-ethylamine. hydrochloride], the half-inhibitory concentration (IC50) is 10 to 150 µM.
The molecule `NC(CO)c1ccc(F)c(Oc2ccccc2)c1F` (stereo not shown) [Example 46, 2-Amino-2-(2,4-difluoro-3-phenoxy-phenyl)-ethanol. hydrochloride] returned an IC50 of 10 to 150 µM.
As to `CCC(NCc1ccc[nH]1)c1ccc(F)c(Oc2ccccc2)c1F` (stereo not shown) [Example 291], the half-inhibitory concentration (IC50) fell in the range of 10 to 150 µM.
Take `CC[C@@H](N[C@H](C)CC(N)=O)c1ccc(Cl)c(Oc2ccc(C#N)nc2)c1F` [Example 247]: the IC50 was in the range of 10 to 150 µM.
For the molecule `CC[C@@H](N[C@H](C)CC(N)=O)c1ccc(Cl)c(Oc2ccc(N)c(OC)c2)c1F` [Example 254], the half-inhibitory concentration (IC50) was in the range of 10 to 150 µM.
`CC[C@@H](N[C@H](C)CC(=O)NC)c1ccc(Cl)c(Oc2ccccc2)c1F` [Example 131B, (R)-3-[(R)-1-(4-Chloro-2-fluoro-3-phenoxy-phenyl)-propylamino]-N-methyl-butyramide. hydrochloride] returned a concentration for half-maximal inhibition (IC50) of 10 to 150 µM.
The same measure, in the same setting: the same measure for `NC(CC(=O)Nc1ccncc1)c1ccc(F)c(Oc2ccccc2)c1F` (stereo not shown) [Example 20, 3-Amino-3-(2,4-difluoro-3-phenoxy-phenyl)-N-pyridin-4-yl-propionamide. dihydrochloride]: 10 to 150 µM; for `CN[C@H](CCOC)c1ccc(Cl)c(Oc2ccccc2)c1F` [Example 359]: 10 to 150 µM; for `CC[C@@H](N[C@H](C)CC(=O)NCC(N)=O)c1ccc(Cl)c(Oc2ccccc2)c1F` [Example 177]: 10 to 150 µM.
`CC[C@@H](N[C@H](C)CC(=O)NOC)c1ccc(Cl)c(Oc2ccccc2)c1F` [Example 307]: the IC50 was in the range of 10 to 150 µM.
`C[C@@H](N)c1ccc(Cl)c(Oc2ccccc2)c1F` [Example 341] registered a half-inhibitory concentration (IC50) of 10 to 150 µM.
Molecule `CC[C@@H](N[C@@H](C)CC(N)=O)c1ccc(Cl)c(Oc2ccc(F)cc2N)c1F` [Example 334] came in with an IC50 of 10 to 150 µM.
`NC(CCO)c1ccc(F)c(Oc2ccccc2)c1F` (stereo not shown) [Example 294, 3-Amino-3-(2,4-difluoro-3-phenoxy-phenyl)-propan-1-ol.hydrochloride] came in with an IC50 of 10 to 150 µM.
The molecule `CC[C@@H](N[C@H](C)CC(=O)NC(C)C)c1ccc(Cl)c(Oc2ccccc2)c1F` [Example 304] came in with a 50% inhibitory concentration (IC50) of 10 to 150 µM.
In turn, `CC[C@@H](N[C@H](C)CC(=O)N(C)OC)c1ccc(Cl)c(Oc2ccccc2)c1F` [Example 160] came in with a half-inhibitory concentration (IC50) of 10 to 150 µM.

Still in this assay, the particulars now being: protease activity of full length NS34a, FRET peptide substrate; read-out: Activity IC50.
In the case of `CC[C@@H](N)c1ccc(Cl)c(Oc2cccc(NS(C)(=O)=O)c2)c1F` [Example 151], the IC50 amounted to 3.1 µM.
Turning to `CC[C@@H](N)c1ccc(Cl)c(Oc2ccc(-c3nnc(C)o3)cc2)c1F` [Example 181], the IC50 is 2.3 µM.
`C#Cc1ccc(Oc2c(Cl)ccc([C@@H](CC)N[C@H](C)CC(N)=O)c2F)cc1` [Example 229]: the IC50 was determined as 1.7 µM.
Still for that read-out and setting: the same measure for `CC[C@@H](N)c1ccc(Cl)c(Oc2ccccc2)c1Cl` [Example 262]: 5.9 µM.
Take `CCCCC(N)c1ccc(F)c(Oc2ccccc2)c1F` (stereo not shown) [Example 10]: the IC50 is 1.8 µM.
For the molecule `NC(c1ccc(F)c(Oc2ccccc2)c1F)C1CCOCC1` (stereo not shown) [Example 41], the IC50 amounted to 7.1 µM.
Same read-out and setting: in the case of `CC[C@@H](N)c1ccc(Cl)c(Oc2ccc(-c3cnco3)c(C)c2)c1F` [Example 228] it was 1.6 µM; in that of `CC[C@@H](N)c1ccc(Cl)c(Oc2ccc(C#N)c(F)c2)c1F` [Example 166], 2.1 µM.
Still for that read-out and setting: the same measure for `CC[C@@H](N)c1ccc(Cl)c(Oc2ccnc(Cl)c2)c1F` [Example 167]: 6.1 µM; for `CC[C@H](N)c1ccc(Cl)c(Oc2cccc(CO)c2)c1F` [Example 111, {3-[3-((S)-1-Amino-propyl)-6-chloro-2-fluoro-phenoxy]-phenyl}-methanol.hydrochloride]: 0.63 µM; for `C[C@@H](CC(N)=O)N[C@@H](CCO)c1ccc(Cl)c(Oc2ccccc2)c1F` [Example 350]: 2.6 µM.
Consider `CC[C@H](N[C@@H](C)c1c[nH]cn1)c1ccc(Cl)c(Oc2ccccc2)c1F` [Example 129], for which the concentration for half-maximal inhibition (IC50) is 0.36 µM.
`CC[C@@H](N)c1ccc(Cl)c(Oc2ccc(S(=O)(=O)NC)cc2)c1F` [Example 189]: the IC50 was determined as 8.6 µM.
For the molecule `CC[C@@H](N)c1ccc(Cl)c(Oc2cccc(S(C)(=O)=O)c2)c1F` [Example 170], the IC50 worked out at 2.3 µM.
Take `CC[C@@H](N[C@H](C)c1c[nH]cn1)c1ccc(Cl)c(Oc2ccccc2)c1F` [Example 130]: the IC50 was determined as 1.3 µM.
On to `N[C@H](c1ccc(Cl)c(Oc2ccccc2)c1F)C1CCOCC1` [Example 344], for which the half-inhibitory concentration (IC50) worked out at 1.5 µM.
`CC[C@@H](N)c1ccc(Cl)c(Oc2cccc([N+](=O)[O-])c2)c1F` [Example 152]: the IC50 is 6.9 µM.
`C[C@@H](CC(N)=O)NCc1ccc(Cl)c(Oc2ccccc2)c1F` [Example 328]: the IC50 was 1.4 µM.
`CC[C@@H](N)c1ccc(Cl)c(Oc2ccnc(C)c2)c1F` [Example 168]: the IC50 was determined as 3.7 µM.
Turning to `CS(=O)(=O)Nc1cccc(Oc2c(F)ccc(C(N)CC3CCNCC3)c2F)c1` (stereo not shown) [Example 108B, N-{3-[3-(1-Amino-2-piperidin-4-yl-ethyl)-2,6-difluoro-phenoxy]-phenyl}-methane-sulfonamide.dihydrochloride], the 50% inhibitory concentration (IC50) worked out at 1.9 µM.
Consider `CCC(NC[C@@H](O)CO)c1ccc(F)c(Oc2ccccc2)c1F` (stereo partly shown) [Example 69], for which the IC50 came out at 6 µM.
For `N[C@@H](CCO)c1ccc(Cl)c(Oc2ccccc2)c1F` [Example 338, 3-Amino-3-(4-chloro-2-fluoro-3-phenoxy-phenyl)-propan-1-ol.hydrochloride], the IC50 was 2 µM.
With `CC[C@@H](N)c1ccc(Cl)c(Oc2ccc3c(c2)CCO3)c1F` [Example 193], the IC50 was 0.96 µM.
Same read-out and setting: in the case of `CC[C@H](N)c1ccc(Cl)c(Oc2cccc(C(=O)N3CCCC3)c2)c1F` [Example 133, {3-[3-((S)-1-Amino-propyl)-6-chloro-2-fluoro-phenoxy]-phenyl}-pyrrolidin-1-yl-methanone.hydrochloride] it was 0.7 µM; in that of `CCNC(=O)O[C@@H](C)c1cccc(Oc2c(Cl)ccc([C@@H](N)CC)c2F)c1` [Example 140], 1.3 µM.
`CC[C@@H](N)c1ccc(Cl)c(Oc2ccc(N(C)C)cc2)c1F` [Example 182]: the 50% inhibitory concentration (IC50) stood at 5.7 µM.
Turning to `C[C@H](N)c1ccc(Cl)c(Oc2ccccc2)c1F` [Example 342], the IC50 was 2.7 µM.
As for `CCC(Nc1ccncc1)c1ccc(F)c(Oc2ccccc2)c1F` (stereo not shown) [Example 113, [1-(2,4-Difluoro-3-phenoxy-phenyl)-propyl]-pyridin-4-yl-amine.hydrochloride], the IC50 stood at 0.68 µM.
With `CC[C@@H](N[C@H](C)CC(=O)N[C@H](C)CO)c1ccc(Cl)c(Oc2ccccc2)c1F` [Example 208], the IC50 worked out at 3.4 µM.
Turning to `CC[C@@H](N)c1ccc(Cl)c(Oc2cccc(CNS(C)(=O)=O)c2)c1F` [Example 157], the IC50 is 2.1 µM.
Consider `CC[C@H](N)c1ccc(Cl)c(Oc2cccc(C(C)O)c2)c1F` (stereo partly drawn) [Example 132B, 1-{3-[3-((S)-1-Amino-propyl)-6-chloro-2-fluoro-phenoxy]-phenyl}-ethanol.hydrochloride], for which the concentration for half-maximal inhibition (IC50) stood at 0.52 µM.
In the case of `CC[C@@H](N[C@@H](C)c1[nH]cnc1C)c1ccc(Cl)c(Oc2ccccc2)c1F` [Example 148], the half-maximal inhibitory concentration (IC50) came out at 1.7 µM.
With `CC[C@@H](N[C@H](C)CC(N)=O)c1ccc(Cl)c(Oc2ccc(-c3cnco3)cc2)c1F` [Example 220], the 50% inhibitory concentration (IC50) is 4.6 µM.
Take `C[C@@H](CC(N)=O)N[C@H](C)c1ccc(Cl)c(Oc2ccccc2)c1F` [Example 336]: the 50% inhibitory concentration (IC50) is 1 µM.
On to `C[C@@H](CC(=O)NCCN)N[C@@H](CC1CCOCC1)c1ccc(Cl)c(Oc2ccccc2)c1F` [Example 352], for which the concentration for half-maximal inhibition (IC50) turned out to be 0.32 µM.
Turning to `CCNC(=O)O[C@H](C)c1cccc(Oc2c(Cl)ccc([C@@H](N)CC)c2F)c1` [Example 139, Ethyl-carbamic acid (R)-1-{3-[3-((S)-1-amino-propyl)-6-chloro-2-fluoro-phenoxy]-phenyl}-ethyl ester.hydrochloride], the IC50 came to 1.3 µM.
As for `CC[C@H](CC(N)=O)N[C@H](CC)c1ccc(Cl)c(Oc2ccccc2)c1F` [Example 135], the IC50 came out at 9.7 µM.
